In patent publication US10344025B2, “GLS1 inhibitors for treating disease” (Board of Regents, The University of Texas System, priority 2014, dated 2019):
pEC50: −log10 of the molar value.

test system: A549 cells; experiment: Proliferation Assay (A549 viability, Cell Titer Fluor, 72 hours); assay type: cell-based; settings: Homo sapiens, A549, 72 h
Protocol: A549 cells were routinely maintained in RPMI 1640 media (Gibco catalog number 11875-093) supplemented with 10% dialyzed fetal bovine serum using a humidified incubator (37° C., 5% CO2 and ambient O2). In preparation for the viability assay, cells were inoculated into 384-well black CulturPlates (Perkin Elmer) at a density of 1000 cells/well in a volume of 40 uL. Following a 24-hour incubation at 37° C., 5% CO2 and ambient O2, cells were treated with compound (10 uL) in a final DMSO concentration of 0.5% (v/v). The microplates were then incubated for 72 hours (37° C., 5% CO2 and ambient O2). Cell Titer Fluor (Promega) was subsequently added (10 uL of 6× reagent) and mixed for 15 minutes at room temperature. The plates were then incubated for 30 minutes (37° C., 5% CO2 and ambient O2) and fluorescence was subsequently read on the Perkin Elmer Envision plate reader. IC50 values were calculated using a four-parameter logistic curve fit.
Non-limiting examples include the following compounds and pharmaceutically acceptable salts thereof. […] “ND” indicates no data.

Compound | pEC50
CNC(=O)c1cn(CCCCc2ccc(NC(=O)Cc3cc(-c4cc(F)ccc4C)ccn3)nn2)nn1 [Example 609, 1-(4-(6-(2-(4-(5-fluoro-2-methylphenyl)pyridin-2-yl)acetamido)pyridazin-3-yl)butyl)-N-methyl-1H-1,2,3-triazole-4-carboxamide] | > 7.00
CNC(=O)c1cn(CCCCc2ccc(NC(=O)Cc3cc(-c4cccc(OC(F)(F)F)c4)ccn3)nn2)nn1 [Example 192, N-methyl-1-(4-(6-(2-(4-(3-(trifluoromethoxy)phenyl)pyridin-2-yl)acetamido)pyridazin-3-yl)butyl)-1H-1,2,3-triazole-4-carboxamide] | > 7.00
O=C(NCc1cc(C2CC2)ccn1)c1cn(CCC(F)Cn2cc(C(=O)NCc3cccc(C4CC4)c3)nn2)nn1 (stereo not shown) [Example 134, 1-[4-(4-{[(3-cyclopropylphenyl)methyl]carbamoyl}-1H-1,2,3-triazol-1-yl)-3-fluorobutyl]-N-[(4-cyclopropylpyridin-2-yl)methyl]-1H-1,2,3-triazole-4-carboxamide] | > 7.00
CNC(=O)c1cn(CCCCc2ccc(NC(=O)Cc3cc(Br)ccn3)nn2)nn1 [Example 200, 1-(4-(6-(2-(4-bromopyridin-2-yl)acetamido)pyridazin-3-yl)butyl)-N-methyl-1H-1,2,3-triazole-4-carboxamide] | 6.30 to 7.00
O=C(Cc1cccc(OC(F)(F)F)c1)Nc1ccc(CCCCn2cc(C(=O)NCc3ccccn3)nn2)nn1 [Example 529, N-(pyridin-2-ylmethyl)-1-[4-(6-{2-[3-(trifluoromethoxy)phenyl]acetamido}pyridazin-3-yl)butyl]-1H-1,2,3-triazole-4-carboxamide] | > 7.00
CNC(=O)c1cn(CCCCc2ccc(NC(=O)Cc3cc(Cl)ccn3)nn2)nn1 [Example 191, 1-(4-{6-[2-(4-chloropyridin-2-yl)acetamido]pyridazin-3-yl}butyl)-N-methyl-1H-1,2,3-triazole-4-carboxamide] | 6.30 to 7.00
CNC(=O)c1cn(C[C@H](F)CCc2ccc(NC(=O)Cc3cc(C(F)(F)F)cc(C)n3)nn2)nn1 [Example 268, (R)-1-(2-fluoro-4-(6-(2-(6-methyl-4-(trifluoromethyl)pyridin-2-yl)acetamido)pyridazin-3-yl)butyl)-N-methyl-1H-1,2,3-triazole-4-carboxamide] | > 7.00
CNC(=O)c1cn(CCCCc2ccc(NC(=O)Cc3cncc(Br)c3)nn2)nn1 [Example 546, 1-(4-{6-[2-(5-bromopyridin-3-yl)acetamido]pyridazin-3-yl}butyl)-N-methyl-1H-1,2,3-triazole-4-carboxamide] | 6.30 to 7.00
CNC(=O)c1cn(CCCCc2ccc(NC(=O)Cc3cc(-c4ccc(F)cc4C(F)(F)F)ccn3)nn2)nn1 [Example 606, 1-(4-(6-(2-(4-(4-fluoro-2-(trifluoromethyl)phenyl)pyridin-2-yl)acetamido)pyridazin-3-yl)butyl)-N-methyl-1H-1,2,3-triazole-4-carboxamide] | > 7.00
O=C(Cc1cccc(OC(F)(F)F)c1)Nc1ccc(CCCCn2cc(C(=O)NCCO)nn2)nn1 [Example 528, N-(2-hydroxyethyl)-1-[4-(6-{2-[3-(trifluoromethoxy)phenyl]acetamido}pyridazin-3-yl)butyl]-1H-1,2,3-triazole-4-carboxamide] | 5.30 to 6.30
O=C(Cc1ccccc1)Nc1ccc(CCCCn2cc(C(=O)NCc3ccccc3)nn2)nn1 [Example 5, N-Benzyl-1-(4-(6-(2-phenylacetamido)pyridazin-3-yl)butyl)-1H-1,2,3-triazole-4-carboxamide] | > 7.00
CNC(=O)c1cn(CC(F)CCc2ccc(NC(=O)Cc3cc(C(F)(F)F)cc(C)n3)nn2)nn1 (stereo not shown) [Example 264, 1-(2-fluoro-4-(6-(2-(6-methyl-4-(trifluoromethyl)pyridin-2-yl)acetamido)pyridazin-3-yl)butyl)-N-methyl-1H-1,2,3-triazole-4-carboxamide] | > 7.00
CNC(=O)c1cn(CCCCc2ccc(NC(=O)Cc3cc(OCC(F)(F)F)ccn3)nn2)nn1 [Example 225, N-methyl-1-(4-(6-(2-(4-(2,2,2-trifluoroethoxy)pyridin-2-yl)acetamido)pyridazin-3-yl)butyl)-1H-1,2,3-triazole-4-carboxamide] | 6.30 to 7.00
CNC(=O)c1cn(C[C@@H](F)CCc2ccc(NC(=O)Cc3cc(C(F)(F)F)ccn3)nn2)nn1 [Example 260, (S)-1-(2-fluoro-4-(6-(2-(4-(trifluoromethyl)pyridin-2-yl)acetamido)pyridazin-3-yl)butyl)-N-methyl-1H-1,2,3-triazole-4-carboxamide] | > 7.00
CNC(=O)c1cn(C[C@@H](F)CCc2ccc(NC(=O)Cc3ccccn3)nn2)nn1 [Example 256, (S)-1-(2-fluoro-4-(6-(2-(pyridin-2-yl)acetamido)pyridazin-3-yl)butyl)-N-methyl-1H-1,2,3-triazole-4-carboxamide] | 6.30 to 7.00
O=C(Cc1cncc(OC2CC(F)(F)C2)c1)Nc1ccc(CCCCn2cc(C(=O)NCc3ccccn3)nn2)nn1 [Example 231, 1-(4-(6-(2-(5-(3,3-difluorocyclobutoxy)pyridin-3-yl)acetamido)pyridazin-3-yl)butyl)-N-(pyridin-2-ylmethyl)-1H-1,2,3-triazole-4-carboxamide] | > 7.00
CC(C)(O)CNC(=O)c1cn(CCCCc2ccc(NC(=O)Cc3cccc(OC(F)(F)F)c3)nn2)nn1 [Example 549, N-(2-hydroxy-2-methylpropyl)-1-[4-(6-{2-[3-(trifluoromethoxy)phenyl]acetamido}pyridazin-3-yl)butyl]-1H-1,2,3-triazole-4-carboxamide] | 5.30 to 6.30
COCCNC(=O)c1cn(CCCCc2ccc(NC(=O)Cc3cccc(OC(F)(F)F)c3)nn2)nn1 [Example 551, N-(2-methoxyethyl)-1-[4-(6-{2-[3-(trifluoromethoxy)phenyl]acetamido}pyridazin-3-yl)butyl]-1H-1,2,3-triazole-4-carboxamide] | 6.30 to 7.00
O=C(Cc1ccccn1)Nc1ccc(CCCCn2cc(C(=O)NCc3cc(C(F)(F)F)ccn3)nn2)nn1 [Example 203, 1-(4-(6-(2-(pyridin-2-yl)acetamido)pyridazin-3-yl)butyl)-N-((4-(trifluoromethyl)pyridin-2-yl)methyl)-1H-1,2,3-triazole-4-carboxamide] | > 7.00
N#CCNC(=O)c1cn(CCCCc2ccc(NC(=O)Cc3cccc(OC(F)(F)F)c3)nn2)nn1 [Example 527, N-(cyanomethyl)-1-[4-(6-{2-[3-(trifluoromethoxy)phenyl]acetamido}pyridazin-3-yl)butyl]-1H-1,2,3-triazole-4-carboxamide] | > 7.00
CNC(=O)c1cn(CC(F)CCc2ccc(NC(=O)Cc3cc(OC(C)C(F)(F)F)ccn3)nn2)nn1 (stereo not shown) [Example 266, 1-(2-fluoro-4-(6-(2-(4-((1,1,1-trifluoropropan-2-yl)oxy)pyridin-2-yl)acetamido)pyridazin-3-yl)butyl)-N-methyl-1H-1,2,3-triazole-4-carboxamide] | > 7.00
CNC(=O)c1cn(C[C@@H](F)CCc2ccc(NC(=O)Cc3cc(-c4cccc(OC(F)(F)F)c4)ccn3)nn2)nn1 [Example 257, (S)-1-(2-fluoro-4-(6-(2-(4-(3-(trifluoromethoxy)phenyl)pyridin-2-yl)acetamido)pyridazin-3-yl)butyl)-N-methyl-1H-1,2,3-triazole-4-carboxamide] | > 7.00
